Laboratory results from patent publication US7268212B2, “Ligand of G protein-coupled receptor protein and DNA thereof” (Takeda Pharmaceutical Company Limited, priority 2001, dated 2007).
No end group written: not given here.

Target: T1, GPR7 (Homo sapiens, UniProt P48145)
T1 sequence (P48145 1-328): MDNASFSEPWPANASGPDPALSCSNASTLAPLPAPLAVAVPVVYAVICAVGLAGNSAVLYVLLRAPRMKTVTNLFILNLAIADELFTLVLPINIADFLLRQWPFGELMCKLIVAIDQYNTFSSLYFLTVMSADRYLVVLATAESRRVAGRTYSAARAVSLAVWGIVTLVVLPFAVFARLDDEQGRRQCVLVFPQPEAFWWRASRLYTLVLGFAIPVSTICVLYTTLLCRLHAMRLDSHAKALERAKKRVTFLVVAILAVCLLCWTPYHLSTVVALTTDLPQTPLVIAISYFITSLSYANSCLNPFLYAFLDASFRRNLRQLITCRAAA
Test: Test on binding inhibition of various peptides against human GPR7-expressed CHO cell membrane fraction
Design: The synthetic primers were constructed so as to amplify the gene in the region to be translated to its receptor protein; expressed in transfected cells; host or cells: CHO cells, membrane fraction
Settings: iodine-labeled hGPR7L-23; human GPR7-expressed CHO cell membrane fraction 1 μg/well; room temperature 1.5 hour
Protocol: A mixture of 20 μl of hGPR7L-23 (SEQ ID NO:1) (0.1 mM or 1 mM), 20 μl of lactoperoxidase (Sigma; prepared using 10 μg/ml and 0.1M HEPES-NaOH pH7.0), 20 μl of Idoine-125 (manufactured by Amersham, MS-30, 74 MBq), 20 μl of 0.005% hydrogen peroxide (manufactured by Wako Pure Chemical Industries, Ltd.) was allowed to stand at room temperature for 20 to 30 minutes. Then, 600 μl of 0.1% TFA was added to the mixture. The mixture was applied to reverse phase HPLC for separation and the peaks of the two'labeled products were fractionated in a tube charged with 1 mL of DMSO. Immediately, the fraction was stored on ice and an aliquot was provided for measurement of the radioactivity with a γ-counter. The remaining preparation was dispensed and stored at −30° C.
Human GPR7-expressed CHO cells were cultured in a flask. The flask was washed with 5 mM EDTA/PBS to strip the cells off. The cells were stripped off with 5 mM EDTA/PBS and centrifuged for recovery. The recovered cells were suspended in 25 mL of a buffer for preparing membrane fraction (50 mM Tris-HCl, pH7.5, 5 mM EDTA, 0.1% bovine serum albumin (manufactured by Sigma), 0.5 mM PMSF (manufactured by Wako Pure Chemical Industries, Ltd.), 20 μg/mL leupeptin (manufactured by Peptide Research Institute), 0.1 μg/mL pepstatin A (manufactured by Peptide Research Institute) and 4 μg/mL E-64 (manufactured by Peptide Research Institute)), followed by homogenization on ice using a polytron (12,000 rpm, 15 seconds×3 times). The homogenate was centrifuged at 4° C. under 1,000 g for 10 minutes with a high speed cooling centrifuge to recover the supernatant. […] The pellets were recovered and suspended in a small quantity of the buffer for preparing membrane fractions. […]
Using the assay buffer, the human GPR7-expressed CHO cell membrane fraction was diluted in a final concentration of 1 μg/well and iodine-labeled hGPR7L-23 (SEQ ID NO:1) was diluted in a final concentration of […]. […] After 50 μl of a liquid scintillator was dispensed thereto, the radioactivity was counted on a Top Count (Packard) and the data was analyzed in triplet (FIG. 33). […]

IC50: 0.31 nM
Sequence: WYKPTAGQGYYSVGRAAGLLSGFHRSPYA [Trp1-bovine GPR7L(29)]
